Data set [1] deals with pool of microorganisms. The data set is described as follows: Rapid decontamination and long term preservation challenge test in titanium dioxide mineral slurry (pH 8.35). Format: cell-based. Conditions: for concentration, used alone, obtaining 4 log10 reduction in microorganisms: 48 hours after second inoculation at seven days; for effective concentration, used alone (4 log10 reduction): pH 8.35, 30 min after initial inoculation. As to the method:
(§1) The antimicrobial profiles of DBNPA, BNPD, and a combination of DBNPA-BNPD (3:1 w/w) are tested in a commercial water-based latex (UCAR Latex 626 available from The Dow Chemical Company), and a generic mineral slurry sample. Commercial latexes vary in pH values from slightly acidic to basic. For the purpose of this study, a latex with a basic pH (8.7) is selected, as it is known that both BNPD and DBNPA have limited chemical stability at alkaline pH. Mineral slurries vary in pH, but most often they are alkaline. For the purpose of this study, a titanium dioxide slurry with pH of 8.35 was selected.
(§2) Both the latex and the mineral slurry are free of contamination prior to testing. At time zero, the test matrices are inoculated with a pool of microorganisms (listed below) to a final concentration of 5×10^6 CFU/ml. Aliquots of the contaminated samples are weighed into a series of sterile containers followed by addition of the appropriate volume of biocide required to achieve the desired concentration. A control sample, lacking biocide, is included in each evaluation. Following biocide addition, samples are thoroughly mixed and aliquots are removed and streaked to tryptic soy agar plates, at various time points, for the enumeration of surviving microorganisms. All agar plates are incubated at 30° C. for 72 hours prior to assessment of viable bacteria. In all the ensuing results, a minimum of 4 log10 reduction in microorganism concentration, as compared to the control sample, is considered significant efficacy.
Microorganisms: Twenty-four hour tryptic soy broth cultures are combined in equal parts for formulation inoculation at a final concentration of 5×10^6 CFU/ml. Organisms utilized: Pseudomonas aeruginosa (ATCC#15442), Pseudomonas aeruginosa (ATCC#10145), Staphylococcus aureus (ATCC#6538), Burkholderia cepacia (ATCC#25416), Pseudomonas fluorescens B (environmental isolate), Pseudomonas oleovorans (environmental isolate), Enterococcus sulfureus (environmental isolate). […] The samples are stored at ambient conditions for three or seven days, respectively, at which point a second inoculation is administered, to test the long term preservation efficacy of the biocides. Aliquots are removed at 4 h and/or 24 h or 48 h following the second inoculation, and streaked on tryptic soy agar plates, for the enumeration of surviving microorganisms.
(§3) Synergy: The synergy indexes reported here are measured and calculated using Formula 1. In this approach, a synergy index (SI) of 1 indicates additivity. If the synergy index is less than 1, synergy has occurred, while a synergy index greater than 1 indicates antagonism.
(§4) Synergy Index=CA/Ca+CB/Cb (1)
Ca=concentration of antimicrobial A, alone, producing a predetermined end-point […]

Data set [2] relates to pool of microorganisms. In words: Rapid decontamination and long term preservation challenge test in UCAR Latex 626 (pH 8.7). Format: cell-based. Conditions: for active concentration, used alone, achieving 4 log10 reduction in bacterial concentration: UCAR Latex 626, pH 8.7, 1 h after initial inoculum; for concentration, used alone, achieving decontamination: 24 h after second inoculation at seven days. As to the method:
as §1, §2
Microorganisms: Twenty-four hour tryptic soy broth cultures are combined in equal parts for formulation inoculation at a final concentration of 5×10^6 CFU/ml. Organisms utilized: Pseudomonas aeruginosa (ATCC#15442), Pseudomonas aeruginosa (ATCC#10145), Staphylococcus aureus (ATCC#6538), Burkholderia cepacia (ATCC#25416), Pseudomonas fluorescens B (environmental isolate), Pseudomonas oleovorans (environmental isolate), Enterococcus sulfureus (environmental isolate). To assess the rapid decontamination efficacy of the biocides, aliquots are removed at 60 minutes following the initial inoculation, and streaked on tryptic soy agar plates for the enumeration of surviving microorganisms. The samples are stored at ambient conditions for three or seven days, respectively, at which point a second inoculation is administered, to test the long term preservation efficacy of the biocides. Aliquots are removed at 4 h and/or 24 h or 48 h following the second inoculation, and streaked on tryptic soy agar plates, for the enumeration of surviving microorganisms.
as §3, §4
Ca=concentration of antimicrobial A, alone, producing a predetermined end-point
Cb=concentration of antimicrobial B, alone, producing a predetermined end-point
CA and CB=the concentrations of antimicrobials A and B, respectively, together in a mixture, that produce a predetermined end-point

For data set [3] the following is noted: going from pH 6 to pH 8.9; cited from earlier work.

Each structure is given as a SMILES string.

As to `O=[N+]([O-])C(Br)(CO)CO` [BNPD, 2-bromo-2-nitro-1,3-propanediol], in the data set on pool of microorganisms [1], the “concentration, used alone, obtaining 4 log10 reduction in microorganisms” value turned out to be 35.1 ppm and the “effective concentration, used alone (4 log10 reduction)” value is greater than 600 ppm. The “active concentration, used alone, achieving 4 log10 reduction in bacterial concentration” value in the data set with pool of microorganisms [2] is greater than 600 ppm. The “concentration, used alone, achieving decontamination” value in the data set with pool of microorganisms [2] (UCAR Latex 626) is 95.7 ppm. The “effective active concentration (4 log10 reduction)” value in the data set with pool of microorganisms [2] (UCAR Latex 626, 24 h after second inoculation at three days) is 95.7 ppm.
Consider `N#CC(Br)(Br)C(N)=O` [DBNPA, 2,2-dibromo-3-nitrilopropionamide], for which, in the data set on pool of microorganisms [1], the “concentration, used alone, obtaining 4 log10 reduction in microorganisms” value was found to be 400 ppm and the “effective concentration, used alone (4 log10 reduction)” value is reported as 23.4 ppm. For the same compound, the “active concentration, used alone, achieving 4 log10 reduction in bacterial concentration” value with pool of microorganisms [2] amounted to 140 ppm. For the same compound, the “concentration, used alone, achieving decontamination” value in the data set with pool of microorganisms [2] (UCAR Latex 626) was “did not achieve decontamination”. The “factor of increase of rate of disappearance” value in data set [3] is “about 450”.

The record behind these values is patent publication US20100016441A1, “BIOCIDAL COMPOSITION AND METHOD” (priority 2008, published 2010).
